Assay results taken from patent US11858956B2, “6-aza-nucleoside prodrugs as antiviral agents for treating virus infections” (Southern Research Institute, priority 2020, dated 2024).

Assays:
Format in all cases: cell-based
ZIKA = experiment: Antiviral activity against ZIKA in HEK 293 cells; settings: Zika virus; for EC90: HEK293, read-out: ZIKA (HEK 293 cells) EC90; for log reduction at 10 µM: HEK293, read-out: ZIKA (HEK 293 cells) VTR (virus titer reduction)
[1] = Cytotoxicity (CC50) in MDCK cells; settings: dog, H1N1
Method: (§1) As used herein, “CC50” is intended to refer to the concentration of a substance (e.g., a compound or a drug) that is required for 50% reduction of cell viability. In one aspect, an CC50 can refer to the concentration of a substance that is required for 50% reduction (i.e., cytotoxicity) in vivo, as further defined elsewhere herein.
(§2) The antiviral activity against Influenza viruses (H1N1 and H3N2 strains) evaluated in MDCK cells (4-6 hours pre-incubation with compound) shown in Table 5 below. VTR=Virus titer reduction in log at 20 μM concentration. NT: not tested, ND: not determined.

CHIKV = experiment: Antiviral activity against CHIKV in NHDF cells; settings: Chikungunya virus; for EC90: read-out: CHIKV (NHDF cells) EC90; for log reduction at 10 µM: read-out: CHIKV (NHDF cells) VTR (virus titer reduction)
[2] = Cytotoxicity (CC50) in NHDF cells; settings: human, CHIKV
Method: as §1
VTR=Virus titer reduction in log at 10 μM concentration. NT: not tested, ND: not determined.

H3N2 strain = experiment: Antiviral activity against Influenza H3N2 strain in MDCK cells; settings: Influenza A virus; for log reduction at 20 µM: at 20 μM concentration, 4-6 hours pre-incubation, read-out: H3N2 strain (MDCK cells) VTR (virus titer reduction); for EC90: 4-6 hours pre-incubation with compound
Method: as §2

DENV = experiment: Antiviral activity against DENV in HEK293 cells; settings: Dengue virus; for EC90: HEK293, read-out: DENV (HEK293 cells) EC90; for log reduction at 10 µM: HEK293, read-out: DENV (HEK293 cells) VTR (virus titer reduction)
VEEV = experiment: microbe, parasite or virus in culture; settings: Venezuelan equine encephalitis virus, NHDF; for EC90: read-out: VEEV (NHDF cells) EC90; for log reduction at 10 µM: read-out: VEEV (NHDF cells) VTR (virus titer reduction)
[3] = Cytotoxicity (CC50) in HEK293 cells; settings: human, WNV
Method: as §1
The antiviral activity against Alpharviruses evaluated in HEK293 cells (4 hours pre-incubation with compound before infected with virus) is shown in Table 2 below. VTR=Virus titer reduction in log at 10 μM concentration. NT: not tested, ND: not determined

H1N1 strain = experiment: Antiviral activity against Influenza H1N1 strain in MDCK cells; settings: Influenza A virus; for log reduction at 20 µM: at 20 μM concentration, 4-6 hours pre-incubation, read-out: H1N1 strain (MDCK cells) VTR (virus titer reduction); for EC90: 4-6 hours pre-incubation with compound
Method: as §2

WNV = experiment: Antiviral activity against WNV in HEK293 cells; settings: West Nile virus; for EC90: HEK293, read-out: WNV (HEK293 cells) EC90; for log reduction at 10 µM: HEK293, read-out: WNV (HEK293 cells) VTR (virus titer reduction)

| Compound | EC90 (ZIKA) [µM] | log reduction at 10 µM (ZIKA) | CC50 [1] [µM] | EC90 (CHIKV) [µM] | log reduction at 10 µM (CHIKV) | CC50 [2] [µM] | log reduction at 20 µM (H3N2 strain) | EC90 (DENV) [µM] | log reduction at 10 µM (DENV) | EC90 (VEEV) [µM] | log reduction at 10 µM (VEEV) | CC50 [3] [µM] | log reduction at 20 µM (H1N1 strain) | EC90 (WNV) [µM] | log reduction at 10 µM (WNV) | EC90 (H3N2 strain) [µM] | EC90 (H1N1 strain) [µM] |
| --- | --- | --- | --- | --- | --- | --- | --- | --- | --- | --- | --- | --- | --- | --- | --- | --- | --- |
| C[C@H](NP(=O)(OC[C@H]1O[C@@H](n2ncc(=O)[nH]c2=O)[C@H](O)[C@@H]1O)Oc1ccccc1)C(=O)OCc1ccc([N+](=O)[O-])o1 (mixture of isomers) [Compound 1, (5-nitrofuran-2-yl)methyl ((((2R,3S,4R,5R)-5-(3,5-dioxo-4,5-dihydro-1,2,4-triazin-2(3H)-yl)-3,4-dihydroxytetra-hydrofuran-2-yl)methoxy)(phenoxy)phosphoryl)-L-alaninate] | 3.2 | 2.2 | > 100 | 0.95 | 4.3 | > 40 | 0.6 | 1.9 | 2.4 | > 10 | 0.85 | 40 | 1.6 | 0.6 | 3.8 |  |  |
| C[C@H](NP(=O)(OC[C@H]1O[C@@H](n2ncc(=O)[nH]c2=O)[C@H](O)[C@@H]1O)Oc1ccccc1)C(=O)OCc1ccccc1 (mixture of isomers) [Compound 2, Benzyl ((((2R,3S,4R,5R)-5-(3,5-dioxo-4,5-dihydro-1,2,4-triazin-2(3H)-yl)-3,4-dihydroxytetrahydrofuran-2-yl)methoxy)-(phenoxy)phosphoryl)-L-alaninate] | 16 |  | > 100 | 0.4 | 0 | > 40 | 0.9 | 6.9 | 1.3 | > 10 | 0 | > 40 | 2.3 | 1.3 | 3 |  |  |
| CC(C)OC(=O)[C@H](C)NP(=O)(OC[C@H]1O[C@@H](n2ncc(=O)[nH]c2=O)[C@H](O)[C@@H]1O)Oc1ccccc1 (mixture of isomers) [Compound 5, isopropyl ((((2R,3S,4R,5R)-5-(3,5-dioxo-4,5-dihydro-1,2,4-triazin-2(3H)-yl)-3,4-dihydroxytetrahydrofuran-2-yl)methoxy)(phenoxy)phosphoryl)-L-alaninate] | > 30 |  | > 100 | > 10 | 0.15 | > 40 | -0.1 | > 30 |  | > 10 | 0 |  | 0.2 | > 30 |  |  |  |
| CCOC(=O)[C@H](C)NP(=O)(OC[C@H]1O[C@@H](n2ncc(=O)[nH]c2=O)[C@H](O)[C@@H]1O)Oc1ccccc1 (mixture of isomers) [Compound 6, ethyl ((((2R,3S,4R,5R)-5-(3,5-dioxo-4,5-dihydro-1,2,4-triazin-2(3H)-yl)-3,4-dihydroxytetrahydrofuran-2-yl)methoxy)-(phenoxy)phosphoryl)-L-alaninate] | 12 |  | > 100 | > 10 | 0 | > 40 | 0.2 | > 15 |  | > 10 | 0 | > 40 | 1.6 | 10 |  |  |  |
| COC(=O)[C@H](C)NP(=O)(OC[C@H]1O[C@@H](n2ncc(=O)[nH]c2=O)[C@H](O)[C@@H]1O)Oc1ccccc1 (mixture of isomers) [Compound 7, methyl ((((2R,3S,4R,5R)-5-(3,5-dioxo-4,5-dihydro-1,2,4-triazin-2(3H)-yl)-3,4-dihydroxytetrahydrofuran-2-yl)methoxy)-(phenoxy)phosphoryl)-L-alaninate] | 7.6 | 1.3 | > 100 | > 10 | 0 | > 40 | 1.6 | 5 | 3.2 | > 10 | 0 | 40 | 3.4 | 4.3 | 2.6 |  |  |
| CC(C)COC(=O)[C@H](C)NP(=O)(OC[C@H]1O[C@@H](n2ncc(=O)[nH]c2=O)C(O)[C@H]1O)Oc1ccccc1 (stereo in doubt) [Compound 4, 2-isobutyl ((((2R,3S,4R,5R)-5-(3,5-dioxo-4,5-dihydro-1,2,4-triazin-2(3H)-yl)-3,4-dihydroxytetrahydrofuran-2-yl)methoxy)(phenoxy)phosphoryl)-L-alaninate] | 4.8 | 2 | > 100 | > 10 | 0 | > 40 | 1.3 | 2 | 2.2 | 8.9 | 1.18 | 40 | 3.4 | 1.2 | 3.1 |  |  |
| CC(C)COC(=O)[C@H](C)N[P@](=O)(OC[C@H]1O[C@@H](n2ncc(=O)[nH]c2=O)[C@H](O)[C@@H]1O)Oc1cccc2ccccc12 [Compound 8, isobutyl ((((2R,3S,4R,5R)-5-(3,5-dioxo-4,5-dihydro-1,2,4-triazin-2(3H)-yl)-3,4-dihydroxytetrahydrofuran-2-yl)-methoxy)(naphthalen-1-yloxy)phosphoryl)-L-alaninate] | 6 | 1.6 | > 100 | > 10 | 0 | > 40 | 1.6 | 3.9 | 2.3 | > 10 | 0.21 | > 40 | 3.4 | 2.9 | 2.8 |  |  |
| CC(C)[C@@H](N)C(=O)OC[C@H]1O[C@@H](n2ncc(=O)[nH]c2=O)C(O)[C@H]1O (stereo partly drawn) [Compound 9, ((2r,3s,4r,5r)-5-(3,5-dioxo-4,5-dihydro-1,2,4-triazin-2(3H)-yl)-3,4-dihydroxytetrahydrofuran-2-yl) methyl-D-valinate] | 1.4 | 2 | 19.6 | 1 | 1.34 | > 40 | 3.4 | 1.3 | 3.2 | 3.04 | 3.1 | 29 | 3.4 | 0.22 | 3.5 | 2.41 | 0.77 |
| CC[C@H](C)[C@H](N)C(=O)OC[C@H]1O[C@@H](n2ncc(=O)[nH]c2=O)[C@H](O)[C@@H]1O [Compound 10, ((2r,3s,4r,5r)-5-(3,5-dioxo-4,5-dihydro-1,2,4-triazin-2(3H)-yl)-3,4-dihydroxytetrahydrofuran-2-yl)methyl L-isoleucinate] | 0.5 | 3.1 | 19.3 | > 10 | 0.39 | > 40 | 3.4 | 0.3 | 3.4 | 0.62 | 3.51 | 29 | 3.4 | 0.2 | 3.9 | 3.33 | 3.68 |
| CCCCCCCCCCCCCCCCCC(=O)OC[C@H]1O[C@@H](n2ncc(=O)[nH]c2=O)[C@H](O)[C@@H]1O [Compound 15, ((2r,3s,4r,5r)-5-(3,5-dioxo-4,5-dihydro-1,2,4-triazin-2(3H)-yl)-3,4-dihydroxytetrahydrofuran-2-yl)methyl stearate] | 0.4 | 3 | > 20 | 0.31 | 2.6 | 7.96 | 3 | 0.16 | 3.6 | > 10 | 0 | 0.97 | 3.3 | 0.33 | 4.5 | 3.29 | 0.75 |
